Test results published in article PMC5218480 (PLoS ONE, 2017).

Test system: MV-4-11 cells
Experiment: Gene expression microarray analysis (Affymetrix PrimeView) and GSEA
Format: cell-based, human
Set-up: RFU PODN (11730768_x_at) / Fold change /veh PODN (11730768_x_at) / RFU LINC00158 (11744669_a_at) / Fold change /veh LINC00158 (11744669_a_at) / RFU DUSP10 (11751237_a_at) / Fold change /veh DUSP10 (11751237_a_at) / RFU ID3 (11757404_x_at) / Fold change /veh ID3 (11757404_x_at) / RFU PLEKHG5 (11737974_s_at) / Fold change /veh PLEKHG5 (11737974_s_at) / RFU LRRC4B (11730491_at) / Fold change /veh LRRC4B (11730491_at) / RFU GIMAP4 (11747438_a_at) / Fold change /veh GIMAP4 (11747438_a_at) / RFU KRT8 (11758183_x_at) / Fold change /veh KRT8 (11758183_x_at) / RFU CNN1 (11734310_a_at) / Fold change /veh CNN1 (11734310_a_at) / RFU VPS37D (11726825_at) / Fold change /veh VPS37D (11726825_at) / RFU C10orf10 (11716522_x_at) / Fold change /veh C10orf10 (11716522_x_at) / RFU KIR2DL2 /// KIR2DL4 /// KIR2DL5A /// KIR2DL5B /// KIR2DS1 /// KIR2DS2 /// KIR2DS3 /// KIR2DS4 /// KIR3DL3 /// KIR3DL3 /// KIR3DS1 (11738374_at) / Fold change /veh KIR2DL2 /// KIR2DL4 /// KIR2DL5A /// KIR2DL5B /// KIR2DS1 /// KIR2DS2 /// KIR2DS3 /// KIR2DS4 /// KIR3DL3 /// KIR3DL3 /// KIR3DS1 (11738374_at) / RFU C1QL1 (11718748_at) / Fold change /veh C1QL1 (11718748_at) / RFU TMPRSS4 (11747572_a_at) / Fold change /veh TMPRSS4 (11747572_a_at) / RFU HAMP (11756126_x_at) / Fold change /veh HAMP (11756126_x_at) / RFU RNFT2 (11725882_a_at) / Fold change /veh RNFT2 (11725882_a_at) / RFU NR4A2 (11747474_a_at) / Fold change /veh NR4A2 (11747474_a_at) / RFU ABCC12 (11746883_a_at) / Fold change /veh ABCC12 (11746883_a_at) / RFU TMEM136 (11760407_x_at) / Fold change /veh TMEM136 (11760407_x_at) / RFU CLDN22 /// WWC2 (11732394_at) / Fold change /veh CLDN22 /// WWC2 (11732394_at) / RFU HLA-DPB1 (11760878_x_at) / Fold change /veh HLA-DPB1 (11760878_x_at) / RFU SPINT1 (11716480_a_at) / Fold change /veh SPINT1 (11716480_a_at) / RFU GAP43 (11754022_s_at) / Fold change /veh GAP43 (11754022_s_at) / RFU A4GNT (11735810_at) / Fold change /veh A4GNT (11735810_at) / RFU PRB3 (11715151_x_at) / Fold change /veh PRB3 (11715151_x_at) / RFU TUBB4B (11761932_at) / Fold change /veh TUBB4B (11761932_at) / RFU CAPN14 (11732068_a_at) / Fold change /veh CAPN14 (11732068_a_at) / RFU TMCC2 (11721928_a_at) / Fold change /veh TMCC2 (11721928_a_at) / RFU IRGQ (11745062_a_at) / Fold change /veh IRGQ (11745062_a_at) / RFU FAM174B (11720279_a_at) / Fold change /veh FAM174B (11720279_a_at) / RFU TMPRSS4 (11748680_a_at) / Fold change /veh TMPRSS4 (11748680_a_at) / RFU FAM212B (11763350_a_at) / Fold change /veh FAM212B (11763350_a_at) / RFU PLEKHG5 (11743358_a_at) / Fold change /veh PLEKHG5 (11743358_a_at) / RFU ZSCAN30 (11745921_a_at) / Fold change /veh ZSCAN30 (11745921_a_at) / RFU CMKLR1 (11741424_a_at) / Fold change /veh CMKLR1 (11741424_a_at) / RFU LOC101060620 /// MAPK8IP1 (11723275_at) / Fold change /veh LOC101060620 /// MAPK8IP1 (11723275_at) / RFU SPTSSB (11747773_x_at) / Fold change /veh SPTSSB (11747773_x_at) / RFU PRSS12 (11739890_at) / Fold change /veh PRSS12 (11739890_at) / RFU BIN1 (11741810_x_at) / Fold change /veh BIN1 (11741810_x_at) / RFU WNT11 (11732464_a_at) / Fold change /veh WNT11 (11732464_a_at) / RFU C10orf10 (11716521_a_at) / Fold change /veh C10orf10 (11716521_a_at) / RFU C5orf56 (11738089_at) / Fold change /veh C5orf56 (11738089_at) / RFU CYB561 (11721691_x_at) / Fold change /veh CYB561 (11721691_x_at) / RFU ANKRD19P (11752326_a_at) / Fold change /veh ANKRD19P (11752326_a_at) / RFU OR2T12 /// OR2T33 /// OR2T8 (11738714_s_at) / Fold change /veh OR2T12 /// OR2T33 /// OR2T8 (11738714_s_at) / RFU VCAN (11748164_a_at) / Fold change /veh VCAN (11748164_a_at) / RFU JSRP1 (11732532_at) / Fold change /veh JSRP1 (11732532_at) / RFU KRTAP10-11 (11738290_x_at) / Fold change /veh KRTAP10-11 (11738290_x_at) / RFU MYO3A (11730013_a_at) / Fold change /veh MYO3A (11730013_a_at) / RFU EBF3 (11725865_a_at) / Fold change /veh EBF3 (11725865_a_at) / RFU CAMK2N1 (11719241_x_at) / Fold change /veh CAMK2N1 (11719241_x_at) / RFU C5orf56 (11738088_a_at) / Fold change /veh C5orf56 (11738088_a_at) / RFU OLFML3 (11715873_a_at) / Fold change /veh OLFML3 (11715873_a_at) / RFU LOC100653217 /// NTM (11731650_a_at) / Fold change /veh LOC100653217 /// NTM (11731650_a_at) / RFU MAPK11 (11762145_a_at) / Fold change /veh MAPK11 (11762145_a_at) / RFU FIZ1 (11724087_x_at) / Fold change /veh FIZ1 (11724087_x_at) / RFU OASL (11726364_x_at) / Fold change /veh OASL (11726364_x_at) / RFU SOX15 (11748057_x_at) / Fold change /veh SOX15 (11748057_x_at) / RFU CD79A (11719716_a_at) / Fold change /veh CD79A (11719716_a_at) / RFU HIST1H1D (11736915_at) / Fold change /veh HIST1H1D (11736915_at) / RFU CASKIN2 (11723855_a_at) / Fold change /veh CASKIN2 (11723855_a_at) / RFU LOC730098 (11760151_x_at) / Fold change /veh LOC730098 (11760151_x_at) / RFU OR4N2 (11742367_at) / Fold change /veh OR4N2 (11742367_at) / RFU PRRT2 (11749266_a_at) / Fold change /veh PRRT2 (11749266_a_at) / RFU SNX32 (11753110_a_at) / Fold change /veh SNX32 (11753110_a_at) / RFU CDHR5 (11726645_a_at) / Fold change /veh CDHR5 (11726645_a_at) / RFU RCAN1 (11760418_a_at) / Fold change /veh RCAN1 (11760418_a_at) / RFU FAM167A (11723789_a_at) / Fold change /veh FAM167A (11723789_a_at) / RFU FAM26E (11764081_at) / Fold change /veh FAM26E (11764081_at) / RFU ISYNA1 (11749810_s_at) / Fold change /veh ISYNA1 (11749810_s_at) / RFU ACY1 (11761880_at) / Fold change /veh ACY1 (11761880_at) / RFU 11764098_at / Fold change /veh 11764098_at / RFU SAMD14 (11745864_x_at) / Fold change /veh SAMD14 (11745864_x_at) / RFU NPB (11741838_a_at) / Fold change /veh NPB (11741838_a_at) / RFU TMPRSS6 (11731388_a_at) / Fold change /veh TMPRSS6 (11731388_a_at) / RFU KRTAP10-2 (11738614_at) / Fold change /veh KRTAP10-2 (11738614_at) / RFU ARHGAP8 /// PRR5-ARHGAP8 (11727945_x_at) / Fold change /veh ARHGAP8 /// PRR5-ARHGAP8 (11727945_x_at) / RFU KRTAP5-7 /// NADSYN1 (11734609_at) / Fold change /veh KRTAP5-7 /// NADSYN1 (11734609_at) / RFU RASL12 (11751679_a_at) / Fold change /veh RASL12 (11751679_a_at) / RFU CDKN2B (11736163_a_at) / Fold change /veh CDKN2B (11736163_a_at) / RFU PRF1 (11729649_at) / Fold change /veh PRF1 (11729649_at) / RFU, ZNF638 /// ZNF638-IT1 / Fold change vs veh, ZNF638 /// ZNF638-IT1 / RFU, PANK3 / Fold change vs veh, PANK3 / RFU, SH3YL1 / Fold change vs veh, SH3YL1 / RFU, ZEB2 / Fold change vs veh, ZEB2 / RFU, NRIP1 / Fold change vs veh, NRIP1 / RFU, PTTG1IP / Fold change vs veh, PTTG1IP / RFU, CAPN2 / Fold change vs veh, CAPN2 / RFU, MED14 / Fold change vs veh, MED14 / RFU, SNORA58 / Fold change vs veh, SNORA58 / RFU, C1orf63 / Fold change vs veh, C1orf63 / RFU, LRRFIP1 / Fold change vs veh, LRRFIP1 / RFU, NDUFAF7 / Fold change vs veh, NDUFAF7 / RFU, SLC12A2 / Fold change vs veh, SLC12A2 / RFU, IBTK / Fold change vs veh, IBTK / RFU, ESF1 / Fold change vs veh, ESF1 / Fold change vs veh, TMEM50B / RFU, TAOK1 / Fold change vs veh, TAOK1 / RFU, ACBD3 / Fold change vs veh, ACBD3 / RFU, TMA16 / Fold change vs veh, TMA16 / RFU, RWDD3 / Fold change vs veh, RWDD3 / RFU, BCAT1 / Fold change vs veh, BCAT1 / RFU, EDEM3 / Fold change vs veh, EDEM3 / RFU, TMEM33 / Fold change vs veh, TMEM33 / RFU, WDR75 / Fold change vs veh, WDR75 / RFU, AHCTF1 / Fold change vs veh, AHCTF1 / RFU, TFRC / Fold change vs veh, TFRC / RFU, ZDHHC17 / Fold change vs veh, ZDHHC17 / RFU, NOM1 / Fold change vs veh, NOM1 / RFU, ARL8B / Fold change vs veh, ARL8B / RFU, ZBTB11 / Fold change vs veh, ZBTB11 / RFU, TAMM41 / Fold change vs veh, TAMM41 / RFU, KIAA1704 /// LOC100996395 / Fold change vs veh, KIAA1704 /// LOC100996395 / RFU, ING1 / Fold change vs veh, ING1 / RFU, TRMT61B / Fold change vs veh, TRMT61B / RFU, FUBP3 / Fold change vs veh, FUBP3 / RFU, TP53 / Fold change vs veh, TP53 / RFU, TNKS2 / Fold change vs veh, TNKS2 / RFU, ZFP14 / Fold change vs veh, ZFP14 / RFU, ACTR2 / Fold change vs veh, ACTR2 / RFU, PPP3R1 / Fold change vs veh, PPP3R1 / RFU, PIK3R1 / Fold change vs veh, PIK3R1 / RFU, HNRNPA1 / Fold change vs veh, HNRNPA1 / RFU, RNF170 / Fold change vs veh, RNF170 / RFU, ZNF28 / Fold change vs veh, ZNF28 / RFU, RNGTT / Fold change vs veh, RNGTT / RFU, OGT / Fold change vs veh, OGT / RFU, BRD1 / Fold change vs veh, BRD1 / RFU, MARS / Fold change vs veh, MARS / RFU, ZNF655 / Fold change vs veh, ZNF655 / RFU, FAHD1 / Fold change vs veh, FAHD1 / RFU, BDP1 / Fold change vs veh, BDP1 / RFU, LRRCC1 / Fold change vs veh, LRRCC1 / RFU, ARID1A / Fold change vs veh, ARID1A / RFU, ZNF146 / Fold change vs veh, ZNF146 / RFU, ZNF330 / Fold change vs veh, ZNF330 / RFU, GPN3 / Fold change vs veh, GPN3 / RFU, C9orf123 / Fold change vs veh, C9orf123 / RFU, N4BP2L2 / Fold change vs veh, N4BP2L2 / RFU, ARFIP1 / Fold change vs veh, ARFIP1 / RFU, FAM179B / Fold change vs veh, FAM179B / RFU, BCL10 / Fold change vs veh, BCL10 / RFU, UHRF1BP1L / Fold change vs veh, UHRF1BP1L / RFU, BET1 / Fold change vs veh, BET1 / RFU, CNOT2 / Fold change vs veh, CNOT2 / RFU, ZNF268 / Fold change vs veh, ZNF268 / Fold change vs veh, ZNF507 / RFU, DGCR2 / Fold change vs veh, DGCR2 / RFU, WDSUB1 / Fold change vs veh, WDSUB1 / Fold change vs veh, HSP90B1 /// MIR3652 / RFU, ADSS / Fold change vs veh, ADSS / RFU, GK / Fold change vs veh, GK / RFU, ZNF148 / Fold change vs veh, ZNF148 / RFU, TAF9 / Fold change vs veh, TAF9 / RFU, SLC1A5 / Fold change vs veh, SLC1A5 / RFU, SLMO2 / Fold change vs veh, SLMO2 / RFU, ABCC4 / Fold change vs veh, ABCC4 / RFU, LOC101060439 /// RAP1B / Fold change vs veh, LOC101060439 /// RAP1B / RFU, RFX7 / Fold change vs veh, RFX7 / RFU, GTPBP10 / Fold change vs veh, GTPBP10 / RFU, CNEP1R1 / Fold change vs veh, CNEP1R1 / RFU, BIVM-ERCC5 /// ERCC5 / Fold change vs veh, BIVM-ERCC5 /// ERCC5 / RFU, ILF3 / Fold change vs veh, ILF3 / RFU 11762660_at / Fold change /veh 11762660_at / RFU VCAN (11757783_s_at) / Fold change /veh VCAN (11757783_s_at) / RFU DDX43 (11728927_at) / Fold change /veh DDX43 (11728927_at) / RFU KRT8 (11758188_x_at) / Fold change /veh KRT8 (11758188_x_at) / RFU NKD1 (11759106_at) / Fold change /veh NKD1 (11759106_at) / RFU SRD5A1 (11742802_a_at) / Fold change /veh SRD5A1 (11742802_a_at) / RFU TPSAB1 /// TPSB2 (11721975_s_at) / Fold change /veh TPSAB1 /// TPSB2 (11721975_s_at) / RFU GSTM3 (11746129_a_at) / Fold change /veh GSTM3 (11746129_a_at) / RFU IL23R (11737362_x_at) / Fold change /veh IL23R (11737362_x_at) / RFU TMEM51 (11727254_a_at) / Fold change /veh TMEM51 (11727254_a_at) / RFU PIWIL2 (11732686_x_at) / Fold change /veh PIWIL2 (11732686_x_at) / RFU ORM1 (11744905_x_at) / Fold change /veh ORM1 (11744905_x_at) / RFU CCDC152 (11743942_at) / Fold change /veh CCDC152 (11743942_at) / RFU ECM1 (11717891_a_at) / Fold change /veh ECM1 (11717891_a_at) / RFU IL23R (11748794_a_at) / Fold change /veh IL23R (11748794_a_at) / RFU TNFAIP8L3 (11732012_x_at) / Fold change /veh TNFAIP8L3 (11732012_x_at) / RFU MBOAT4 (11741988_at) / Fold change /veh MBOAT4 (11741988_at) / RFU 11764193_at / Fold change /veh 11764193_at / RFU TMEM53 (11763286_at) / Fold change /veh TMEM53 (11763286_at) / RFU MAGEB2 (11727129_at) / Fold change /veh MAGEB2 (11727129_at) / RFU TMEM200A (11744735_a_at) / Fold change /veh TMEM200A (11744735_a_at) / RFU CCDC152 (11751479_a_at) / Fold change /veh CCDC152 (11751479_a_at) / RFU FAM211A (11726209_a_at) / Fold change /veh FAM211A (11726209_a_at) / RFU RGS16 (11746705_a_at) / Fold change /veh RGS16 (11746705_a_at) / RFU VCAN (11755009_s_at) / Fold change /veh VCAN (11755009_s_at) / RFU RHOB (11743442_s_at) / Fold change /veh RHOB (11743442_s_at) / RFU RGS16 (11720943_a_at) / Fold change /veh RGS16 (11720943_a_at) / RFU RGS16 (11720944_at) / Fold change /veh RGS16 (11720944_at) / RFU, VPS4B / Fold change vs veh, VPS4B / RFU, CREB1 / Fold change vs veh, CREB1 / RFU, DNAJC13 / Fold change vs veh, DNAJC13 / RFU, GNAQ / Fold change vs veh, GNAQ / RFU, CDK5R1 / Fold change vs veh, CDK5R1 / RFU, ZRANB3 / Fold change vs veh, ZRANB3 / RFU, CUL4A / Fold change vs veh, CUL4A / RFU, CCNY / Fold change vs veh, CCNY / RFU, UFL1 / Fold change vs veh, UFL1 / RFU, COG3 / Fold change vs veh, COG3 / RFU, DIAPH2 / Fold change vs veh, DIAPH2 / RFU, SKA2 / Fold change vs veh, SKA2 / RFU, AFF3 / Fold change vs veh, AFF3 / RFU, LMF1 / Fold change vs veh, LMF1 / RFU, IPO11 / Fold change vs veh, IPO11 / RFU, DFFB / Fold change vs veh, DFFB / RFU, FOXP1 / Fold change vs veh, FOXP1 / RFU, CARD8 / Fold change vs veh, CARD8 / RFU, STRN3 / Fold change vs veh, STRN3 / RFU, ADK / Fold change vs veh, ADK / RFU, RASSF2 / Fold change vs veh, RASSF2 / RFU, WIPF1 / Fold change vs veh, WIPF1 / RFU, LARP1B / Fold change vs veh, LARP1B / RFU, RASA1 / Fold change vs veh, RASA1 / RFU, RB1 / Fold change vs veh, RB1 / RFU, PPFIA1 / Fold change vs veh, PPFIA1 / RFU, MAT2A / Fold change vs veh, MAT2A / RFU, CCT5 / Fold change vs veh, CCT5 / RFU, WDR92 / Fold change vs veh, WDR92 / RFU, CUX1 / Fold change vs veh, CUX1 / RFU, TTC7A / Fold change vs veh, TTC7A / RFU, TMEM135 / Fold change vs veh, TMEM135 / RFU, DEPTOR / Fold change vs veh, DEPTOR / RFU, CPM / Fold change vs veh, CPM / RFU, DNAJB6 / Fold change vs veh, DNAJB6 / RFU, CACNA2D3 / Fold change vs veh, CACNA2D3 / RFU, DTX4 / Fold change vs veh, DTX4 / RFU, TFCP2 / Fold change vs veh, TFCP2 / RFU, GMCL1 /// GMCL1P1 / Fold change vs veh, GMCL1 /// GMCL1P1 / RFU, AEBP2 / Fold change vs veh, AEBP2 / RFU, SNHG1 /// SNORD22 /// SNORD25 /// SNORD26 /// SNORD27 /// SNORD28 /// SNORD29 /// SNORD31 / Fold change vs veh, SNHG1 /// SNORD22 /// SNORD25 /// SNORD26 /// SNORD27 /// SNORD28 /// SNORD29 /// SNORD31 / Fold change (Aza/veh), C12orf56 (ProbeSet 11735607_a_at) / Fold change (ACY-1035/veh), C12orf56 (ProbeSet 11735607_a_at) / Fold change (Aza/veh), FGFR1OP (ProbeSet 11751329_s_at) / Fold change (ACY-1035/veh), FGFR1OP (ProbeSet 11751329_s_at) / Fold change (Aza/veh), VPS36 (ProbeSet 11739960_a_at) / Fold change (ACY-1035/veh), VPS36 (ProbeSet 11739960_a_at) / RFU SYPL1 (11715823_x_at) / Fold change /veh SYPL1 (11715823_x_at) / RFU IGFBP7 (11715501_s_at) / Fold change /veh IGFBP7 (11715501_s_at) / RFU REEP3 (11722064_at) / Fold change /veh REEP3 (11722064_at) / RFU IGLL1 (11728026_x_at) / Fold change /veh IGLL1 (11728026_x_at): dose or concentration left out as unconfirmed
Conditions: ProbeSet 11720269_a_at; LIST B

Nc1ncn([C@@H]2O[C@H](CO)[C@@H](O)[C@H]2O)c(=O)n1 [azacitidine]
RFU, IBTK: 763.53 RFU
